# Assay results: US20240400986A1, “MEMBRANE BOUND COMPOSITIONS AND METHODS RELATING TO SAME” (FLAGSHIP PIONEERING INNOVATIONS VII, LLC, priority 2021, published 2024)
# Counter-ions that a name gives are not always drawn. Like-named read-outs stand apart in the source and are kept apart here.
# Assays:
# [1] = system: cardiomyocytic cell line derived from human ventricular heart tissue; experiment: Cell viability in cardiomyocyte compound screen (CellTiter-Glo); type: cell-based
# From the text: Cells were stained with Hoechst 34580, CellTracker Green/CellMask Green Actin and MitoTracker Deep Red to detect nuclear material, cytoplasm/F-actin, and mitochondria, respectively, and cultured in poly-L-lysine-coated 96-well glass bottom plates at 15,800 cells/cm^2 and allowed to adhere overnight. For the screening, a total of 100 randomly organized compounds (TargetMol) were divided in 5 groups. Each group included an untreated condition, a vehicular DMSO control, and a known high-gigasome producing condition to comparatively study gigasome production rates. As a cell death control group, 500 nM Staurosporine was added to induce apoptosis. Cultures were incubated for 24 hours under gigasome inducing conditions at concentrations ranging between 10 nM and 10,000 nM. […] Cells remaining in the 96-well plates were assessed for viability using CellTiter-Glo (Promega).
# [2] = system: cardiomyocytic cell line derived from human ventricular heart tissue; experiment: Small molecule compound screen of gigasome production in cardiomyocytic monocultures;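 for all read-outs here: gigasomes shed into the culture medium were imaged by confocal microscopy and counted as round particles lacking nuclear signal, extrapolated to the whole well, fold change is relative to DMSO vehicle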; settings: for fold induction at 0.01 µM / fold induction at 0.1 µM / fold induction at 1 µM / fold induction at 10 µM: Homo sapiens, Cardiomyocyte, read-out: Fold Change of Gigasomes Produced vs. DMSO; for fold induction at 0.01 µM / fold induction at 0.1 µM / fold induction at 1 µM / fold induction at 10 µM / downregulation of gigasome production: 24 h; for Number of Gigasomes Produced / downregulation of gigasome production / Fold Change of Gigasomes Produced vs. DMSO: cardiomyocytes; for downregulation of gigasome production: doses 10-10,000 nM
# Method: For the screening, a total of 100 randomly organized compounds (TargetMol) were divided in 5 groups. Each group included an untreated condition, a vehicular DMSO control, and a known high-gigasome producing condition to comparatively study gigasome production rates. As a cell death control group, 500 nM Staurosporine was added to induce apoptosis. Cultures were incubated for 24 hours under gigasome inducing conditions at concentrations ranging between 10 nM and 10,000 nM. […] The Zeiss ZEN Blue software was used to distribute imaging fields of view (positions) to create an unbiased imaging sample of a well. 5 images were taken using a Zeiss LSM 900 confocal microscope. […] The BioApps ZEN software package was used to perform cell nucleus segmentation and counting. After 24 hours, gigasomes were harvested from the cell culture media by gently removing from the top of each 96-well ⅔ of the total volume without disturbing the cell layer (containing the settled gigasomes) and by adding to each well the same amount of PBS containing 0.5 mM EDTA. The wells were washed twice gently, and the gigasome-containing media/0.5 mM EDTA PBS wash was transferred into the well of a 384-well glass bottom plate. Cells remaining in the 96-well plates were assessed for viability using CellTiter-Glo (Promega).
# For gigasome analysis in 384-well plates, the Zeiss ZEN Blue software was used to distribute positions to create an unbiased imaging sample of a well. 6 images per well were taken using a Zeiss LSM 900 confocal microscope. […] A watershed binary segmentation step was performed to separate grouped objects. For each particle in the mask, characteristic parameters of the particle were calculated and saved. […] Particles of interest were identified by thresholding by area and circularity. […] Circularity, defined by the formula 4pi(area/perimeter^2, was set to be between 0.8, where a value of 1.0 is a perfect circle, and a value of 0 is a line. Gigasomes were identified from the particles of interest by thresholding by mean nuclear signal. The nuclear signal threshold was set using a value equal to one quarter of a threshold value calculated by the Li auto-threshold algorithm applied to the distribution of all particles of interest. Particles of interest with nuclear signal below this value were considered “negative” for nuclear material and were identified as gigasomes. A sampling factor was calculated to extrapolate the total quantity of a type of object (particles, particles of interest, gigasomes) in the well. The sampling factor was the percentage of the well's area that was imaged. […] In some experiments, the number of cells in the cell cultures were estimated with a cell counter. […] The normalized quantity or distribution of objects was described as a quantity or distribution of objects per 1000 cells.
# [3] = system: neuronal cell line derived from human neuroblastoma; settings: neuronal cells, 24 hours
# [4] = system: neuronal cell line derived from human neuroblastoma; experiment: Small molecule compound screen of gigasome production in neuronal monocultures; settings: for Fold Change of Gigasomes Produced vs. DMSO / Number of Gigasomes Produced: neuronal cells, 24 hours
# [5] = Table 23 (down-regulators), dose 10 nM, cardiomyocytes
# [6] = Table 23 (down-regulators), dose 100 nM, cardiomyocytes
# [7] = Table 23 (down-regulators), dose 1000 nM, cardiomyocytes
# [8] = Table 23 (down-regulators), dose 10000 nM, cardiomyocytes
# [9] = Table 23 (down-regulators), dose 10 nM
# [10] = Table 23 (down-regulators), dose 100 nM
# [11] = Table 23 (down-regulators), dose 1000 nM
# [12] = Table 23 (down-regulators), dose 10000 nM
# [13] = Table 22, dose 10 nM, cardiomyocytes, 24 hours
# [14] = Table 22, dose 100 nM, cardiomyocytes, 24 hours
# [15] = Table 22, dose 100 nM, 24 hours
# [16] = Table 22, dose 10000 nM, 24 hours
# [17] = Table 22, dose 1000 nM, 24 hours
# [18] = Homo sapiens, 24 h, read-out: Fold Change of Gigasomes Produced vs. DMSO
structure (smiles),measurement,setting,value
"O=C(O)CC[N+](=O)[O-] [3-Nitropropanoic acid, reference compound]",Viability,[1]; [5],>75%
same,Viability,[1]; [6],100.0%
same,Viability,[1]; [7],>75%
same,Viability,[1]; [8],100.0%
same,fold induction at 0.01 µM,[2],0.75 to 1
same,fold induction at 0.1 µM,[2],0.75 to 1
same,fold induction at 1 µM,[2],0.25 to 0.5
same,fold induction at 10 µM,[2],0.25 to 0.5
same,Number of Gigasomes Produced,[2]; [9],105-120
same,Number of Gigasomes Produced,[2]; [10],90-105
same,Number of Gigasomes Produced,[2]; [11],50-75
same,Number of Gigasomes Produced,[2]; [12],35-50
same,downregulation of gigasome production,[2],dose-dependent downregulation
CC(N)=NCc1cccc(CN)c1.Cl.Cl [1400W dihydrochloride],Viability,[1]; [13],100%
same,Viability,[1]; [5],100.0%
same,Viability,[1]; [6],100.0%
same,Viability,[1]; [7],100.0%
same,Viability,[1]; [8],100.0%
same,Number of Gigasomes Produced,"[2]; Table 22, dose 10 nM, 24 hours",150-175
same,Number of Gigasomes Produced,[2]; [9],>150
same,Number of Gigasomes Produced,[2]; [10],90-105
same,Number of Gigasomes Produced,[2]; [11],90-105
same,Number of Gigasomes Produced,[2]; [12],50-75
COc1ccc(C[C@H]2NC[C@H](O)[C@H]2OC(C)=O)cc1 [Anisomycin],Viability,[3]; dose 10 nM,100%
same,Viability,[3]; dose 100 nM,>75%
same,Viability,[3]; dose 1000 nM,50-75%
same,Viability,[1]; [14],50-75%
same,Fold Change of Gigasomes Produced vs. DMSO,[2]; [15],1.25-1.5
same,Number of Gigasomes Produced,[2]; [15],150-175
same,Fold Change of Gigasomes Produced vs. DMSO,[4]; dose 10 nM,1.0-1.25
same,Number of Gigasomes Produced,[4]; dose 10 nM,<35
same,Fold Change of Gigasomes Produced vs. DMSO,[4]; dose 100 nM,1.75-2.0
same,Number of Gigasomes Produced,[4]; dose 100 nM,65-75
same,Fold Change of Gigasomes Produced vs. DMSO,[4]; dose 1000 nM,1.75-2.0
same,Number of Gigasomes Produced,[4]; dose 1000 nM,65-75
COc1cc(C(C)=O)ccc1O [Apocynin],Viability,"[1]; human, 24 h, 10 nM",>75%
same,Viability,"[1]; human, 24 h, 10000 nM",>75%
same,fold induction at 0.01 µM,[2],1 to 1.25
same,fold induction at 10 µM,[2],1 to 1.25
same,Number of Gigasomes Produced,"[2]; Table 22, dose 10 nM, 24 hours",150-175
same,Number of Gigasomes Produced,[2]; [16],150-175
NC(=O)N1c2ccccc2C=Cc2ccccc21 [Carbamazepine],Viability,"[1]; human, 24 h, 10 nM",>75%
same,Viability,"[1]; human, 24 h, 1000 nM",>75%
same,Viability,"[1]; human, 24 h, 10000 nM",>75%
same,fold induction at 0.01 µM,[2],1 to 1.25
same,fold induction at 1 µM,[2],1.25 to 1.5
same,fold induction at 10 µM,[2],1.25 to 1.5
same,Number of Gigasomes Produced,"[2]; Table 22, dose 10 nM, 24 hours",200-225
same,Number of Gigasomes Produced,[2]; [17],250-275
same,Number of Gigasomes Produced,[2]; [16],250-275
"Nc1ncn([C@@H]2O[C@H](CO)[C@@H](O)[C@H]2O)c(=O)n1 [Compound 5-Azacytidine, 5-Azacytidine]",Viability,"[1]; human, 24 h, 1000 nM",50-75%
same,fold induction at 1 µM,[2],1 to 1.25
same,Number of Gigasomes Produced,[2]; [17],150-175
O=C(Nc1ccncc1)c1cc([N+](=O)[O-])ccc1Cl [Compound T0070907],Viability,[1]; [13],100%
same,Viability,[1]; [14],100%
same,Fold Change of Gigasomes Produced vs. DMSO,"[2]; Table 22, dose 10 nM, 24 hours",1.0-1.25
same,Number of Gigasomes Produced,"[2]; Table 22, dose 10 nM, 24 hours",150-175
same,Fold Change of Gigasomes Produced vs. DMSO,[2]; [15],1.0-1.25
same,Number of Gigasomes Produced,[2]; [15],150-175
O=S(=O)(c1ccccc1)N(CC(F)(F)F)c1ccc(C(O)(C(F)(F)F)C(F)(F)F)cc1 [Compound T0901317],Viability,"[1]; human, 24 h, 10000 nM",>75%
same,fold induction at 10 µM,[2],1 to 1.25
same,Number of Gigasomes Produced,[2]; [16],150-175
Cn1c(=O)n(-c2ccc(C(C)(C)C#N)cc2)c2c3cc(-c4cnc5ccccc5c4)ccc3ncc21 [Dactolisib],Viability,"[1]; human, 24 h, 10000 nM",>75%
same,fold induction at 10 µM,[2],1.25 to 1.5
same,Number of Gigasomes Produced,[2]; [16],150-175
CN(C)CCCSC(=N)N [Dimaprit dihydrochloride],Viability,[1]; [5],100.0%
same,Viability,[1]; [6],100.0%
same,Viability,[1]; [7],>75%
same,Viability,[1]; [8],100.0%
same,fold induction at 0.01 µM,[2],0.75 to 1
same,fold induction at 0.1 µM,[2],0.75 to 1
same,fold induction at 1 µM,[2],0.5 to 0.75
same,fold induction at 10 µM,[2],0.25 to 0.5
same,Number of Gigasomes Produced,[2]; [9],90-105
same,Number of Gigasomes Produced,[2]; [10],75-90
same,Number of Gigasomes Produced,[2]; [11],50-75
same,Number of Gigasomes Produced,[2]; [12],50-75
Cc1cc(C)c(S(=O)(=O)N(Cc2ccc(-c3cccc(S(C)(=O)=O)c3)cc2)Cc2ccc(C(F)(F)F)o2)c(C)c1 [GSK2033],Viability,"[1]; human, 24 h, 10000 nM",100%
same,fold induction at 10 µM,[2],1.25 to 1.5
same,Number of Gigasomes Produced,[2]; [16],150-175
"NC1=N[C@@]2(c3cc(NC(=O)c4ccc(F)cn4)ccc3F)COC[C@H]2CS1 [LY288672, reference compound]",Viability,"[1]; human, 24 h, 1000 nM",>75%
same,fold induction at 1 µM,[2],1.5 to 1.75
same,Number of Gigasomes Produced,[2]; [17],175-200
COC(=O)C=Cc1ccccc1 [Methyl cinnamate],Viability,"[1]; human, 24 h, 1000 nM",>75%
same,fold induction at 1 µM,[2],1.25 to 1.5
same,Number of Gigasomes Produced,[2]; [17],150-175
O=C(O)c1cccnc1C(=O)O [Quinolinic acid],Viability,[1]; [14],100%
same,fold induction at 0.1 µM,[2],1 to 1.25
same,Number of Gigasomes Produced,[2]; [15],150-175
C[C@@H]1COCCN1c1cc(=O)n2c(n1)N(Cc1cncc(Cl)c1)[C@H](C(F)(F)F)CC2 [SAR405],Viability,"[1]; human, 24 h, 1000 nM",100.0%
same,Viability,"[1]; human, 24 h, 10000 nM",>75%
same,fold induction at 1 µM,[2],1 to 1.25
same,fold induction at 10 µM,[2],1 to 1.25
same,Number of Gigasomes Produced,[2]; [17],150-175
same,Number of Gigasomes Produced,[2]; [16],200-225
CCN(CC)CCNC(=O)c1c(C)[nH]c(/C=C2\C(=O)Nc3ccc(F)cc32)c1C [Sunitinib],Viability,"[1]; human, 24 h, 10000 nM",50-75%
same,fold induction at 10 µM,[2],1.5 to 1.75
same,Number of Gigasomes Produced,[2]; [16],200-225
CCCCCCCCCCCCCCOc1ccc(C(=O)O)o1 [TOFA],Viability,[1]; [5],>75%
same,Viability,[1]; [6],100.0%
same,Viability,[1]; [7],>75%
same,Viability,[1]; [8],100.0%
same,Fold Change of Gigasomes Produced vs. DMSO,[2]; [9],1.0-1.25
same,Number of Gigasomes Produced,[2]; [9],120-135
same,Fold Change of Gigasomes Produced vs. DMSO,[2]; [10],1.0-1.25
same,Number of Gigasomes Produced,[2]; [10],105-120
same,Fold Change of Gigasomes Produced vs. DMSO,[2]; [11],0.75-1.0
same,Number of Gigasomes Produced,[2]; [11],105-120
same,Fold Change of Gigasomes Produced vs. DMSO,[2]; [12],0.75-1.0
same,Number of Gigasomes Produced,[2]; [12],75-90
"N#C/C(=C\c1cn(-c2ccccc2)c2ccccc12)C(=O)O [UK-5099, reference compound]",Viability,[3]; dose 10 nM,100%
same,Viability,[3]; dose 100 nM,100%
same,Viability,[3]; dose 1000 nM,100%
same,Viability,[3]; dose 10000 nM,100%
same,downregulation of gigasome production,[2],dose-dependent downregulation
same,Fold Change of Gigasomes Produced vs. DMSO,[4]; dose 10 nM,0.5-0.75
same,Number of Gigasomes Produced,[4]; dose 10 nM,20-25
same,Fold Change of Gigasomes Produced vs. DMSO,[4]; dose 100 nM,0.5-0.75
same,Number of Gigasomes Produced,[4]; dose 100 nM,15-20
same,Fold Change of Gigasomes Produced vs. DMSO,[4]; dose 1000 nM,0.5-0.75
same,Number of Gigasomes Produced,[4]; dose 1000 nM,15-20
same,Fold Change of Gigasomes Produced vs. DMSO,[4]; dose 10000 nM,0.25-0.5
same,Number of Gigasomes Produced,[4]; dose 10000 nM,10-15
CN1C(=N)N[C@](C)(c2cc(NC(=O)c3ccc(F)cn3)ccc2F)CS1(=O)=O [Verubecestat],Viability,[3]; dose 10 nM,100%
same,Viability,[3]; dose 100 nM,100%
same,Viability,[3]; dose 1000 nM,100%
same,Viability,[3]; dose 10000 nM,100%
same,fold induction at 0.01 µM,[4]; [18],0.75 to 1
same,fold induction at 0.1 µM,[4]; [18],0.5 to 0.75
same,fold induction at 1 µM,[4]; [18],0.5 to 0.75
same,fold induction at 10 µM,[4]; [18],0.5 to 0.75
same,Number of Gigasomes Produced,[4]; dose 10 nM,35-40
same,Number of Gigasomes Produced,[4]; dose 100 nM,25-30
same,Number of Gigasomes Produced,[4]; dose 1000 nM,20-25
same,Number of Gigasomes Produced,[4]; dose 10000 nM,20-25
"COc1cc(O)c2c(c1)oc(=O)c1c3cc(O)c(O)cc3oc21 [Wedelolactone, reference compound]",Viability,"[1]; human, 24 h, 10 nM",100.0%
same,Viability,"[1]; human, 24 h, 100 nM",100.0%
same,Viability,"[1]; human, 24 h, 1000 nM",>75%
same,Viability,"[1]; human, 24 h, 10000 nM",>75%
same,fold induction at 0.01 µM,[2],0.5 to 0.75
same,fold induction at 0.1 µM,[2],0.5 to 0.75
same,fold induction at 1 µM,[2],0.5 to 0.75
same,fold induction at 10 µM,[2],< 0.25
same,Number of Gigasomes Produced,[2]; [9],75-90
same,Number of Gigasomes Produced,[2]; [10],75-90
same,Number of Gigasomes Produced,[2]; [11],50-75
same,Number of Gigasomes Produced,[2]; [12],<20
same,downregulation of gigasome production,[2],dose-dependent downregulation
same,"gigasome production, fold-change compared to DMSO","[4]; Oleuropein across doses, Wedelolactone 10,000 nM, 24 h",< 0.2
